The record followed here is patent US20100292255A1, “Therapeutic Compounds and Their Use in Treating Diseases and Disorders” (Myriad Pharmaceuticals, Inc., priority 2007, published 2010).

This assay deals with T1, purified human Hsp90.
T1 construct: purified human Hsp90 (Stressgen, SPP-770)
Description: Hsp90 binding assay: displacement of BODIPY-labeled geldanamycin measured by fluorescence polarization. Conditions: BODIPY-GM 10 nM, Hsp90 30 nM, overnight at room temperature; for IC50: read-out: GM displacement from purified Hsp90 measured by FP IC 50; for GM displacement from purified Hsp90 measured by FP Inhibition by 5 μM compd. (%): 5 μM compound. Put shortly:
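Purified human Hsp90 at 30 nM and 10 nM BODIPY-GM tracer were incubated overnight at room temperature with compound in 2% DMSO. The buffer was 20 mM HEPES-KOH pH 7.3, 50 mM KCl, 5 mM MgCl2, 20 mM Na2MoO4, 2 mM DTT. Background-subtracted mP values read at 485/530 nm were normalized to DMSO wells to give % inhibition.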
(In general: Polarisation of emitted light reports the rotation of a fluorescent probe.)

Consider `NC(=O)C[C@H](N)C(=O)N1CCC(CCn2c(Sc3cc4c(cc3Br)OCO4)nc3c(N)ncnc32)CC1` [Example Compound 152, (3S)-3-Amino-4-[4-(2-{6-amino-8-[(6-bromo-1,3-benzodioxol-5-yl)thio]-9H-purin-9-yl}ethyl)piperidin-1-yl]-4-oxobutanamide], for which the IC50 is 114 nM. Still for that read-out and setting: the result for `COCC(=O)N1CCC(CCn2c(Sc3cc4c(cc3Br)OCCO4)nc3c(N)ncnc32)CC1` [compound 6, 8-[(7-Bromo-2,3-dihydro-1,4-benzodioxin-6-yl)thio]-9-{2-[1-(methoxyacetyl)piperidin-4-yl]ethyl}-9H-purin-6-amine] reads 70 nM; that for `CC(=O)N1CCC(CCn2c(Sc3cc4c(cc3C#N)OCCO4)nc3c(N)ncnc32)CC1` [compound 60, 7-({9-[2-(1-Acetylpiperidin-4-yl)ethyl]-6-amino-9H-purin-8-yl}thio)-2,3-dihydro-1,4-benzodioxine-6-carbonitrile], 60 nM; that for `CO[C@@H](C)C(=O)N1CCC(CCn2c(Sc3cc4c(cc3Br)OCCO4)nc3c(N)ncnc32)CC1` [compound 4, 8-[(7-Bromo-2,3-dihydro-1,4-benzodioxin-6-yl)thio]-9-(2-{1-[(2S)-2-methoxypropanoyl]piperidin-4-yl}ethyl)-9H-purin-6-amine], 80 nM. Still for that read-out and setting: the result for `N#Cc1cc2c(cc1Sc1nc3c(N)ncnc3n1CCC1CCN(C=O)CC1)OCCO2` [compound 57] reads 120 nM. As to `C[C@H](O)C(=O)N1CCC(CCn2cnc(N)c3nc(Sc4cc5c(cc4C#N)OCO5)nc2-3)CC1` [compound 96, 6-{[6-Amino-3-(2-{1-[(2S)-2-hydroxypropanoyl]piperidin-4-yl}ethyl)-3H-purin-8-yl]thio}-1,3-benzodioxole-5-carbonitrile], the “GM displacement from purified Hsp90 measured by FP Inhibition by 5 μM compd. (%)” value is given as 13.0%. With `CCCC(=O)N1CCC(CCn2c(Sc3cc4c(cc3Br)OCCO4)nc3c(N)ncnc32)CC1` [compound 81, 8-[(7-Bromo-2,3-dihydro-1,4-benzodioxin-6-yl)thio]-9-[2-(1-butyrylpiperidin-4-yl)ethyl]-9H-purin-6-amine], the IC50 was 100 nM.

As for `CS(=O)(=O)N1CCCC(CCn2cnc(N)c3nc(Sc4cc5c(cc4C#N)OCO5)nc2-3)C1` (stereo not shown) [compound 48, 6-[(6-Amino-3-{2-[1-(methylsulfonyl)piperidin-3-yl]ethyl}-3H-purin-8-yl)thio]-1,3-benzodioxole-5-carbonitrile], the “GM displacement from purified Hsp90 measured by FP Inhibition by 5 μM compd. (%)” value stood at 77.0%. As for `COc1ccc(OC(F)(F)F)c(Sc2nc3c(N)ncnc3n2CCC2CCN(C(=O)CO)CC2)c1` [compound 102, 2-{4-[2-(6-Amino-8-{[5-methoxy-2-(trifluoromethoxy)phenyl]thio}-9H-purin-9-yl)ethyl]piperidin-1-yl}-2-oxoethanol], the IC50 worked out at 280 nM.

On to `CC(=O)N1CCC(CCn2c(Sc3cc4c(cc3[N+](=O)[O-])OCO4)nc3c(N)ncnc32)CC1` [compound 70], for which the IC50 was found to be 455 nM.

For `Nc1ncnc2c1nc(Sc1cc(Br)c3occc3c1)n2CCC1CCN(C=O)CC1` [Example Compound 182, 4-(2-{6-Amino-8-[(7-bromo-1-benzofuran-5-yl)thio]-9H-purin-9-yl}ethyl)piperidine-1-carbaldehyde], the IC50 is > 5000 nM.

On to `CC(=O)N1CCC(CCn2c(Sc3cc4c(cc3Cl)OCCO4)nc3c(N)ncnc32)CC1` [compound 73, 9-[2-(1-Acetylpiperidin-4-yl)ethyl]-8-[(7-chloro-2,3-dihydro-1,4-benzodioxin-6-yl)thio]-9H-purin-6-amine], for which the IC50 came to 260 nM.

With `C[C@H](O)C(=O)N1CCCC[C@@H]1CCn1c(Sc2cc3c(cc2Br)OCO3)nc2c(N)ncnc21` [Example Compound 206, (2S)-1-[(2R)-2-(2-{6-Amino-8-[(6-bromo-1,3-benzodioxol-5-yl)thio]-9H-purin-9-yl}ethyl)piperidin-1-yl]-1-oxopropan-2-ol], the IC50 was > 5000 nM.

Consider `C[C@H](O)C(=O)N1CCC(CCn2c(Sc3cc4c(cc3Br)CCC4)nc3c(N)ncnc32)CC1` [compound 108, (S)-1-(4-{2-[6-Amino-8-(6-bromo-indan-5-ylsuIfanyl)-purin-9-yl]-ethyl}-piperidin-1-yl)-2-hydroxy-propan-1-one], for which the IC50 was 160 nM.

For the compound `CC(=O)N[C@@H](C)C(=O)N1CCC(CCn2c(Sc3cc4c(cc3Br)OCCO4)nc3c(N)ncnc32)CC1` [Example Compound 160, N-{(1S)-2-[4-(2-{6-Amino-8-[(7-bromo-2,3-dihydro-1,4-benzodioxin-6-yl)thio]-9H-purin-9-yl}ethyl)piperidin-1-yl]-1-methyl-2-oxoethyl}acetamide], the IC50 was determined as 200 nM.

Regarding `CO[C@H](C)C(=O)N1CCC(CCn2cnc(N)c3nc(Sc4cc5c(cc4C#N)OCO5)nc2-3)CC1` [compound 36, 6-{[6-Amino-3-(2-{1-[(2R)-2-methoxypropanoyl]piperidin-4-yl}ethyl)-3H-purin-8-yl]thio}-1,3-benzodioxole-5-carbonitrile], the “GM displacement from purified Hsp90 measured by FP Inhibition by 5 μM compd. (%)” value worked out at 35.0%.

In the case of `COc1ccc(OC(F)(F)F)c(Sc2nc3c(N)ncn(CCC4CCN(C=O)CC4)c-3n2)c1` [compound 78], the “GM displacement from purified Hsp90 measured by FP Inhibition by 5 μM compd. (%)” value stood at 14.0%. `Nc1ncnc2c1nc(Sc1cc3occc3cc1Br)n2CCC1CCNCC1` [Example Compound 197, 8-[(5-Bromo-1-benzofuran-6-yl)thio]-9-(2-piperidin-4-ylethyl)-9H-purin-6-amine]: the IC50 is 150 nM.

On to `N#Cc1cc2c(cc1Sc1nc3c(N)ncnc3n1CCC1CCN(C=O)CC1)CCC2=O` [compound 1, 6-({6-Amino-9-[2-(1-formylpiperidin-4-yl)ethyl]-9H-purin-8-yl}thio)-3-oxoindane-5-carbonitrile], for which the IC50 was found to be 230 nM. In the case of `CS(=O)(=O)N1CCC(CCn2c(Sc3cc4c(cc3C#N)OCO4)nc3c(N)ncnc32)CC1` [compound 49, 6-[(6-Amino-9-{2-[1-(methylsulfonyl)piperidin-4-yl]ethyl}-9H-purin-8-yl)thio]-1,3-benzodioxole-5-carbonitrile], the IC50 was 480 nM. Still for that read-out and setting: the result for `Nc1ncnc2c1nc(Sc1cc3c(cc1Br)OCCO3)n2CCC1CCN(C2=NC(=O)CC2)CC1` [Example Compound 154, 5-[4-(2-{6-amino-8-[(7-bromo-2,3-dihydro-1,4-benzodioxin-6-yl)thio]-9H-purin-9-yl}ethyl)piperidin-1-yl]-3,4-dihydro-2H-pyrrol-2-one] reads 105 nM. Still for that read-out and setting: the value for `C[C@@H](O)C(=O)N1CCC(CCn2c(Sc3cc4c(cc3Cl)OCO4)nc3c(N)ncnc32)CC1` [Example Compound 204, (2R)-1-[4-(2-{6-Amino-8-[(6-chloro-1,3-benzodioxol-5-yl)thio]-9H-purin-9-yl}ethyl)piperidin-1-yl]-1-oxopropan-2-ol] was 400 nM.

For `N#Cc1cc2c(cc1Sc1nc3c(N)ncn(CCC4CCN(C(=O)[C@@H](N)C(F)(F)F)CC4)c-3n1)OCO2` [compound 134, 6-[(6-amino-3-{2-[1-(3,3,3-trifluoroalanyl)piperidin-4-yl]ethyl}-3H-purin-8-yl)thio]-1,3-benzodioxole-5-carbonitrile], the “GM displacement from purified Hsp90 measured by FP Inhibition by 5 μM compd. (%)” value was 9.0%. For `N#Cc1cc2c(cc1Sc1nc3c(N)ncnc3n1CCC1CCN(C(=O)CO)CC1)OCCO2` [compound 101, 7-({6-Amino-9-[2-(1-glycoloylpiperidin-4-yl)ethyl]-9H-purin-8-yl}thio)-2,3-dihydro-1,4-benzodioxine-6-carbonitrile], the IC50 turned out to be 200 nM. Take `C[C@H](O)C(=O)N1CCC(CCn2cnc(N)c3nc(Sc4cc5c(cc4C#N)OCCO5)nc2-3)CC1` [compound 100, 7-{[6-Amino-3-(2-{1-[(2S)-2-hydroxypropanoyl]piperidin-4-yl}ethyl)-3H-purin-8-yl]thio}-2,3-dihydro-1,4-benzodioxine-6-carbonitrile]: the “GM displacement from purified Hsp90 measured by FP Inhibition by 5 μM compd. (%)” value was determined as 27.0%.

Regarding `Nc1ncnc2c1nc(Sc1cc3c(cc1F)OCCO3)n2CCC1CCN(C=O)CC1` [Example Compound 183, 4-(2-{6-Amino-8-[(7-fluoro-2,3-dihydro-1,4-benzodioxin-6-yl)thio]-9H-purin-9-yl}ethyl)piperidine-1-carbaldehyde], the IC50 was determined as 2900 nM. Still for that read-out and setting: the result for `CS(=O)(=O)NCC(=O)N1CCC(CCn2c(Sc3cc4c(cc3Br)OCCO4)nc3c(N)ncnc32)CC1` [Example Compound 157, N-{2-[4-(2-{6-Amino-8-[(7-bromo-2,3-dihydro-1,4-benzodioxin-6-yl)thio]-9H-purin-9-yl}ethyl)piperidin-1-yl]-2-oxoethyl}methanesulfonamide] reads 195 nM; that for `C[C@H](O)C(=O)N[C@H](C)C(=O)N1CCC(Cn2c(Sc3cc4c(cc3Br)OCCO4)nc3c(N)ncnc32)CC1` [compound 126, (2S)-N-{(1R)-2-[4-({6-Amino-8-[(7-bromo-2,3-dihydro-1,4-benzodioxin-6-yl)thio]-9H-purin-9-yl}methyl)piperidin-1-yl]-1-methyl-2-oxoethyl}-2-hydroxypropanamide], > 5000 nM. Turning to `C[C@H](O)C(=O)N1CCC(CCn2cnc(N)c3nc(Sc4cc5c(cc4Br)CCC5)nc2-3)CC1` [compound 109, (S)-1-(4-{2-[6-Amino-8-(6-bromo-indan-5-ylsulfanyl)-purin-3-yl]-ethyl}-piperidin-1-yl)-2-hydroxy-propan-1-one], the “GM displacement from purified Hsp90 measured by FP Inhibition by 5 μM compd. (%)” value turned out to be 58.0%. Consider `Nc1ncnc2c1nc(Sc1cc3c(cc1Cl)OCO3)n2CCC1CCN(C=O)CC1` [Example Compound 188, 4-(2-{6-Amino-8-[(6-chloro-1,3-benzodioxol-5-yl)thio]-9H-purin-9-yl}ethyl)piperidine-1-carbaldehyde], for which the IC50 was found to be 205 nM. Same read-out and setting: the value for `Nc1ncnc2c1nc(Sc1cc3c(cc1Br)OCO3)n2C1CCNCC1` [Example Compound 211, 8-[(6-Bromo-1,3-benzodioxol-5-yl)thio]-9-piperidin-4-yl-9H-purin-6-amine] was 950 nM.
